Target: WRN helicase (core helicase motif aa N517-P1238) (Homo sapiens (Human), UniProt Q14191)
Assay: WRN ATPase assay (ADP-Glo), DNA dependent ATP hydrolysis
Assay type: biochemical
Conditions: 3 hours pre-incubation, 300 micromolar ATP, FLAP26 ssDNA; geometric means of at least 2 determinations
Outline: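 Uses the WRN core helicase (aa N517-P1238) with single-strand 45-mer FLAP26 DNA in Tris pH 7.5, MgCl2, NaCl, BSA and pluronic buffer. Compound was pre-incubated 3 h with enzyme and ATP; reaction then run with 10 nM WRN, 0.2 nM FLAP26 and 300 µM ATP for 30 min at room temperature. ADP quantified by ADP-Glo luminescence; IC50 from duplicate 4-parameter fits, geometric mean of ≥2 runs.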

Sequence of WRN helicase (core helicase motif aa N517-P1238) (Q14191 517-1238): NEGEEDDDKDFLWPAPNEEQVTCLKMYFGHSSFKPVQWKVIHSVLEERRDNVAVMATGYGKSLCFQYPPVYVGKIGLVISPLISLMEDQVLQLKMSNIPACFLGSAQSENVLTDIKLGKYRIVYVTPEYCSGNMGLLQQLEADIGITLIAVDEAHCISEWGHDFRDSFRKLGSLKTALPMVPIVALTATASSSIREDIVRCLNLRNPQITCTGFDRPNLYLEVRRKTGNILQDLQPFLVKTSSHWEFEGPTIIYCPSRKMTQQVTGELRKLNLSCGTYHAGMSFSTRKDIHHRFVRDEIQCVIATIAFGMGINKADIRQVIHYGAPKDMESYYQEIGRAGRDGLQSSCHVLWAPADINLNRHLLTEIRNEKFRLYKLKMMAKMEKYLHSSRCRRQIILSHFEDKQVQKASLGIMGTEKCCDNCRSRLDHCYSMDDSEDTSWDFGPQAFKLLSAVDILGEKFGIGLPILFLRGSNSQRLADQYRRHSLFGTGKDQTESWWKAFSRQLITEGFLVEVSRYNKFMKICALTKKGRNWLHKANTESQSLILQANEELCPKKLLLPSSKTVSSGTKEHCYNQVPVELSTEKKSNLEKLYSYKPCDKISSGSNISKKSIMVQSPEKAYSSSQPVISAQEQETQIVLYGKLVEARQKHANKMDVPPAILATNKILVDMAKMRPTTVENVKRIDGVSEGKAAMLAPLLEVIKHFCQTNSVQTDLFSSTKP

| SMILES | IC50 [nM] |
| --- | --- |
| Cc1ncnc(C(=O)N2CCN(c3c4n(c5nc(C6=CCOCC6)nn5c3=O)[C@@H](C(=O)Nc3ccc(C(F)(F)F)cc3Cl)C[C@H]4C)C[C@H]2C)c1O [Example 18A, (7R,9R)—N-(2-chloro-4-(trifluoromethyl)phenyl)-2-(3,6-dihydro-2H-pyran-4-yl)-6-((R)-4-(5-hydroxy-6-methylpyrimidine-4-carbonyl)-3-methylpiperazin-1-yl)-7-methyl-5-oxo-5,7,8,9-tetrahydropyrrolo[1,2-c][1,2,4]triazolo[1,5-a]pyrimidine-9-carboxamide] | 50 |
| Cc1ncnc(C(=O)N2CCN(c3c4n(c5nc(C6=CCOCC6)nn5c3=O)[C@@H](C(=O)Nc3ccc(C(F)(F)F)cc3Cl)C[C@H]4C)[C@H]3CC[C@@H]32)c1O [Example 21A, (7R,9R)—N-(2-chloro-4-(trifluoromethyl)phenyl)-2-(3,6-dihydro-2H-pyran-4-yl)-6-((1S,6S)-5-(5-hydroxy-6-methylpyrimidine-4-carbonyl)-2,5-diazabicyclo[4.2.0]octan-2-yl)-7-methyl-5-oxo-5,7,8,9-tetrahydropyrrolo[1,2-c][1,2,4]triazolo[1,5-a]pyrimidine-9-carboxamide] | 30 |
